Measurements from patent US20100022509A1, “Inhibitors of MshC and Homologs Thereof, and Methods of Identifying Same” (priority 2006, published 2010).
Where two headings read alike, the source gives them in different places.

Molecular target: T1, MshC (Mycobacterium tuberculosis, UniProt P9WJM9)
T1 sequence (P9WJM9 1-414): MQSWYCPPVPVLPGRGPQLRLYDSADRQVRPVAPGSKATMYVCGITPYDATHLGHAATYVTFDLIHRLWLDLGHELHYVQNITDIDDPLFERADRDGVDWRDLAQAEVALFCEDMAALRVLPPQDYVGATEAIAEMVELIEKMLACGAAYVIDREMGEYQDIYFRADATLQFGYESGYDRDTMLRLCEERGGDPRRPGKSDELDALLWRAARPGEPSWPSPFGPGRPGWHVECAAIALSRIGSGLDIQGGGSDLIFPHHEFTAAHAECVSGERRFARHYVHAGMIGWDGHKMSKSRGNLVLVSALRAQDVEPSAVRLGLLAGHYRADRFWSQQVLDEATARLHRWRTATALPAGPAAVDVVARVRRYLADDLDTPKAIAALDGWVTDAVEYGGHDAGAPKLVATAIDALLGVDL
Test: biochemical
Type: biochemical, M. tuberculosis

O=C(NCCCN1CCN(Cc2ccccc2)CC1)c1ccc2c(c1)N(Cc1ccccc1)C(=O)c1ccccc1S2(=O)=O [Inhibitor 83-52]
inhibition of MshC in words, compounds lacking the basic amino group or with groups in excess of 10 carbons on the remote amino residue: little or no inhibition | IC50 (IC50): 2500 ± 1200 µM

CC(C)CN(CCCNC(=O)c1ccc2c(c1)N(Cc1ccccc1)C(=O)c1ccccc1S2(=O)=O)CC(C)C [Inhibitor 83-53]
IC50 (IC50): > 3000 µM

CN(CCNC(=O)c1ccc2c(c1)N(Cc1ccccc1)C(=O)c1ccccc1S2(=O)=O)C1CCCCC1 [Inhibitor 83-54]
inhibition of MshC in words, 1,3-diaminopropyl residue with remote amino residue capable of protonation: measurable inhibition | inhibition of MshC in words, Z benzyl moiety with methyl groups in the 2,5 positions or unsubstituted: Weak but detectable inhibition | IC50 (IC50): 510 ± 80 µM | inhibition of MshC in words, compounds grouped by X (X=S, X=SO, X=SO2): Significant inhibition

O=C(NCCCSC1CCCCC1)c1ccc2c(c1)N(Cc1ccccc1)C(=O)c1ccccc1S2(=O)=O [Inhibitor 83-55]
inhibition of MshC in words, compounds lacking the basic amino group or with groups in excess of 10 carbons on the remote amino residue: little or no inhibition | IC50 (IC50): > 3000 µM

O=C(NCCN1CCN(Cc2ccccc2)CC1)c1ccc2c(c1)N(Cc1cccc(Cl)c1)C(=O)c1ccccc1[S+]2[O-] (centres unmarked) [Inhibitor 83-56]
inhibition of MshC in words, compounds lacking the basic amino group or with groups in excess of 10 carbons on the remote amino residue: little or no inhibition | IC50 (IC50): > 3000 µM

CC1CCCN(CCCNC(=O)c2ccc3c(c2)N(Cc2cccc(Cl)c2)C(=O)c2ccccc2S3(=O)=O)C1 (centres unmarked) [Inhibitor 83-57]
IC50 (IC50): ~1000 µM

O=C(NCCCC1CCCCCC1)c1ccc2c(c1)N(Cc1cccc(Cl)c1)C(=O)c1ccccc1S2(=O)=O [Inhibitor 83-58]
inhibition of MshC in words, Z is a benzyl moiety bearing one or more halogens: Measurable inhibition | IC50 (IC50): ≥ 500 µM

CN(CCCNC(=O)c1ccc2c(c1)N(Cc1cccc(Cl)c1)C(=O)c1ccccc1S2(=O)=O)c1ccccc1 [Inhibitor 83-59]
IC50 (IC50): > 3000 µM

CCCCN(C)CCCNC(=O)c1ccc2c(c1)N(Cc1cccc(Cl)c1)C(=O)c1ccccc1[S+]2[O-] (centres unmarked) [Inhibitor 83-60]
inhibition of MshC in words, compounds grouped by X (X=S, X=SO, X=SO2): Significant inhibition

O=C(NCCCSC1CCCCC1)c1ccc2c(c1)N(Cc1cccc(Cl)c1)C(=O)c1ccccc1[S+]2[O-] (centres unmarked) [Inhibitor 83-61]
inhibition of MshC in words, compounds lacking the basic amino group or with groups in excess of 10 carbons on the remote amino residue: little or no inhibition | IC50 (IC50): ~1000 µM

O=C(NCCN1CCN(Cc2ccccc2)CC1)c1ccc2c(c1)N(Cc1cccc(Cl)c1)C(=O)c1ccccc1[S+]2[O-] (centres unmarked) [Inhibitor 83-62]
inhibition of MshC in words, compounds lacking the basic amino group or with groups in excess of 10 carbons on the remote amino residue: little or no inhibition | IC50 (IC50): 2100 ± 900 µM

CN(CCCNC(=O)c1ccc2c(c1)N(Cc1cccc(Cl)c1)C(=O)c1ccccc1[S+]2[O-])c1ccccc1 (centres unmarked) [Inhibitor 83-63]
IC50 (IC50): > 2000 µM

CC1CCCN(CCCNC(=O)c2ccc3c(c2)N(Cc2cccc(Cl)c2)C(=O)c2ccccc2[S+]3[O-])C1 (centres unmarked) [Inhibitor 83-64]
inhibition of MshC in words, 1,3-diaminopropyl residue with remote amino residue capable of protonation: measurable inhibition | inhibition of MshC in words, Z is a benzyl moiety bearing one or more halogens: Measurable inhibition | IC50 (IC50): 150 ± 30 µM | inhibition of MshC in words, compounds grouped by X (X=S, X=SO, X=SO2): Significant inhibition

CC1CC(C)CN(CCCNC(=O)c2ccc3c(c2)N(Cc2cccc(Cl)c2)C(=O)c2ccccc2[S+]3[O-])C1 (centres unmarked) [Inhibitor 83-65]
inhibition of MshC in words, 1,3-diaminopropyl residue with remote amino residue capable of protonation: measurable inhibition | inhibition of MshC in words, Z is a benzyl moiety bearing one or more halogens: Measurable inhibition | inhibition of MshC in words, compounds grouped by X (X=S, X=SO, X=SO2): Significant inhibition

CCC1CCCN(CCCNC(=O)c2ccc3c(c2)N(Cc2cccc(Cl)c2)C(=O)c2ccccc2[S+]3[O-])C1 (centres unmarked) [Inhibitor 83-66]
inhibition of MshC in words, 1,3-diaminopropyl residue with remote amino residue capable of protonation: measurable inhibition | inhibition of MshC in words, Z is a benzyl moiety bearing one or more halogens: Measurable inhibition | IC50 (IC50): 80 ± 20 µM | inhibition of MshC in words, compounds grouped by X (X=S, X=SO, X=SO2): Significant inhibition

CC(C)CN(CCCNC(=O)c1ccc2c(c1)N(Cc1cccc(Cl)c1)C(=O)c1ccccc1[S+]2[O-])CC(C)C (centres unmarked) [Inhibitor 83-67]
IC50 (IC50): ~3000 µM

O=C(NC1CCN(Cc2ccccc2)CC1)c1ccc2c(c1)N(Cc1cccc(Cl)c1)C(=O)c1ccccc1[S+]2[O-] (centres unmarked) [Inhibitor 83-68]
IC50 (IC50): 1500 ± 500 µM

O=C(NCCN1CCN(Cc2ccccc2)CC1)c1ccc2c(c1)N(Cc1cccc(Cl)c1)C(=O)c1ccccc1[S+]2[O-] (centres unmarked) [Inhibitor 83-69]
inhibition of MshC in words, compounds lacking the basic amino group or with groups in excess of 10 carbons on the remote amino residue: little or no inhibition | IC50 (IC50): 2500 ± 700 µM

O=C(NCCCN1CCOCC1)c1ccc2c(c1)N(Cc1cccc(Cl)c1)C(=O)c1ccccc1[S+]2[O-] (centres unmarked) [Inhibitor 83-70]
inhibition of MshC in words, 1,3-diaminopropyl residue with remote amino residue capable of protonation: measurable inhibition | inhibition of MshC in words, Z is a benzyl moiety bearing one or more halogens: Measurable inhibition | inhibition of MshC in words, compounds grouped by X: Significant inhibition | IC50 (IC50): 470 ± 130 µM

O=C(NCCCN1CCCC1)c1ccc2c(c1)N(Cc1cccc(Cl)c1)C(=O)c1ccccc1[S+]2[O-] (centres unmarked) [Inhibitor 83-72]
inhibition of MshC in words, 1,3-diaminopropyl residue with remote amino residue capable of protonation: measurable inhibition | inhibition of MshC in words, Z is a benzyl moiety bearing one or more halogens: Measurable inhibition | IC50 (IC50): 97 ± 26 µM | inhibition of MshC in words, compounds grouped by X (X=S, X=SO, X=SO2): Significant inhibition

CCCN(CCC)CCCNC(=O)c1ccc2c(c1)N(Cc1cccc(Cl)c1)C(=O)c1ccccc1[S+]2[O-] (centres unmarked) [Inhibitor 83-73]
inhibition of MshC in words, 1,3-diaminopropyl residue with remote amino residue capable of protonation: measurable inhibition | inhibition of MshC in words, Z is a benzyl moiety bearing one or more halogens: Measurable inhibition | IC50 (IC50): ~200 µM | inhibition of MshC in words, compounds grouped by X (X=S, X=SO, X=SO2): Significant inhibition

CCCCSCCCNC(=O)c1ccc2c(c1)N(Cc1cccc(Cl)c1)C(=O)c1ccccc1[S+]2[O-] (centres unmarked) [Inhibitor 83-74]
inhibition of MshC in words, compounds lacking the basic amino group or with groups in excess of 10 carbons on the remote amino residue: little or no inhibition | IC50 (IC50): > 3000 µM

O=C(NCCN1CCCCCC1)c1ccc2c(c1)N(Cc1cccc(Cl)c1)C(=O)c1ccccc1[S+]2[O-] (centres unmarked) [Inhibitor 83-75]
inhibition of MshC in words, 1,3-diaminopropyl residue with remote amino residue capable of protonation: measurable inhibition | inhibition of MshC in words, Z is a benzyl moiety bearing one or more halogens: Measurable inhibition | IC50 (IC50): ~80 µM | inhibition of MshC in words, compounds grouped by X (X=S, X=SO, X=SO2): Significant inhibition

CCCCN(CCCNC(=O)c1ccc2c(c1)N(Cc1cccc(Cl)c1)C(=O)c1ccccc1[S+]2[O-])Cc1ccccc1 (centres unmarked) [Inhibitor 83-76]
IC50 (IC50): ≥ 3000 µM

CC1CC(C)CN(CCCNC(=O)c2ccc3c(c2)N(Cc2cccc(Cl)c2)C(=O)c2ccccc2S3(=O)=O)C1 (centres unmarked) [Inhibitor 83-77]
IC50 (IC50): 2300 ± 700 µM

O=C(NCCCN1CCCC1)c1ccc2c(c1)N(Cc1cccc(Cl)c1)C(=O)c1ccccc1S2(=O)=O [Inhibitor 83-78]
inhibition of MshC in words, 1,3-diaminopropyl residue with remote amino residue capable of protonation: measurable inhibition | inhibition of MshC in words, Z is a benzyl moiety bearing one or more halogens: Measurable inhibition | IC50 (IC50): ~500 µM | inhibition of MshC in words, compounds grouped by X (X=S, X=SO, X=SO2): Significant inhibition

O=C(NCCN1CCN(Cc2ccccc2)CC1)c1ccc2c(c1)N(Cc1cccc(Cl)c1)C(=O)c1ccccc1S2(=O)=O [Inhibitor 83-79]
inhibition of MshC in words, compounds lacking the basic amino group or with groups in excess of 10 carbons on the remote amino residue: little or no inhibition | IC50 (IC50): > 3000 µM

O=C(NCC1CCN(Cc2ccccc2)CC1)c1ccc2c(c1)N(Cc1cccc(Cl)c1)C(=O)c1ccccc1S2(=O)=O [Inhibitor 83-80]
IC50 (IC50): > 3000 µM

CC(C)CN(CCCNC(=O)c1ccc2c(c1)N(Cc1cccc(Cl)c1)C(=O)c1ccccc1S2(=O)=O)CC(C)C [Inhibitor 83-81]
IC50 (IC50): > 3000 µM

O=C(NCCCN1CCOCC1)c1ccc2c(c1)N(Cc1cccc(Cl)c1)C(=O)c1ccccc1S2(=O)=O [Inhibitor 83-82]
IC50 (IC50): ~3000 µM

CCCN(CCC)CCCNC(=O)c1ccc2c(c1)N(Cc1cccc(Cl)c1)C(=O)c1ccccc1S2(=O)=O [Inhibitor 83-83]
inhibition of MshC in words, 1,3-diaminopropyl residue with remote amino residue capable of protonation: measurable inhibition | inhibition of MshC in words, Z is a benzyl moiety bearing one or more halogens: Measurable inhibition | IC50 (IC50): 980 ± 40 µM | inhibition of MshC in words, compounds grouped by X (X=S, X=SO, X=SO2): Significant inhibition

CN(C)CCCNC(=O)c1ccc2c(c1)N(Cc1ccc(Cl)cc1)C(=O)c1ccccc1[S+]2[O-] (centres unmarked) [Inhibitor 1028]
inhibition of MshC in words, 1,3-diaminopropyl residue with remote amino residue capable of protonation: measurable inhibition | inhibition of MshC in words, Z is a benzyl moiety bearing one or more halogens: Measurable inhibition | inhibition of MshC in words, compounds grouped by X: Significant inhibition | IC50 (IC50, μM): 335 ± 15 µM

CC1CCCN(CCCNC(=O)c2ccc3c(c2)N(Cc2ccc(F)cc2)C(=O)c2ccccc2[S+]3[O-])C1 (centres unmarked) [Inhibitor 1051]
inhibition of MshC in words, 1,3-diaminopropyl residue with remote amino residue capable of protonation: measurable inhibition | inhibition of MshC in words, Z is a benzyl moiety bearing one or more halogens: Measurable inhibition | IC50 (IC50, μM): 710 ± 20 µM | inhibition of MshC in words, compounds grouped by X (X=S, X=SO, X=SO2): Significant inhibition

Cc1ccc(C)c(CN2C(=O)c3ccccc3[S+]([O-])c3ccc(C(=O)NCCCN4CCCC4)cc32)c1 (centres unmarked) [Inhibitor 1061]
inhibition of MshC in words, 1,3-diaminopropyl residue with remote amino residue capable of protonation: measurable inhibition | inhibition of MshC in words, Z benzyl moiety with methyl groups in the 2,5 positions or unsubstituted: Weak but detectable inhibition | IC50 (IC50, μM): 1600 ± 300 µM | inhibition of MshC in words, compounds grouped by X (X=S, X=SO, X=SO2): Significant inhibition

CCCCN(C)CCCNC(=O)c1ccc2c(c1)N(Cc1cc(C)ccc1C)C(=O)c1ccccc1[S+]2[O-] (centres unmarked) [Inhibitor 1062]
inhibition of MshC in words, 1,3-diaminopropyl residue with remote amino residue capable of protonation: measurable inhibition | inhibition of MshC in words, Z benzyl moiety with methyl groups in the 2,5 positions or unsubstituted: Weak but detectable inhibition | IC50 (IC50, μM): ~2500 µM

CCN1C(=O)c2ccccc2[S+]([O-])c2ccc(C(=O)NCCCN3CCOCC3)cc21 (centres unmarked) [Inhibitor 1075]
IC50 (IC50, μM): > 3000 µM

CCN1C(=O)c2ccccc2[S+]([O-])c2ccc(C(=O)NCCN3CCCCCC3)cc21 (centres unmarked) [Inhibitor 1081]
IC50 (IC50, μM): > 3000 µM
